Test systems include A549 NSCLC; CAKI-1 renal; COLO 205 colon; M14 melanoma; PC-3 prostate; RPMI-8226 leukemia; RXF 393 renal; SK-MEL-2 melanoma; SK-OV-3 ovarian; SNB-19 CNS.
Common to all, as to experiment: NCI tumour cell line growth inhibition, 48 h

The structures appear in SMILES notation.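 Five compound concentrations were applied to cells in 96-well plates for 48 hours; endpoints were derived by simple linear interpolation of the resulting dose-response curve. GI50: concentration for 50% inhibition of growth. Definition used: TGI = concentration required for complete inhibition of growth.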 Where only a bound is given, the exact number is not on record here.

Turning to `O=C1COCCN1c1ccc(NCc2cn(Cc3ccc(F)cc3)c3ccccc23)cc1`, the GI50 in the experiment on A549 NSCLC is 1.68 µM; in the experiment with CAKI-1 renal, 0.0252 µM; in the experiment with COLO 205 colon, 0.664 µM; with M14 melanoma, 5.46 µM; in the experiment on PC-3 prostate, 8.68 µM; in the experiment on RPMI-8226 leukemia it was 0.662 µM. For the same compound, the GI50 in the experiment with RXF 393 renal was 0.911 µM; in the experiment on SK-MEL-2 melanoma it was 0.779 µM; in the experiment on SK-OV-3 ovarian, 1.65 µM; with SNB-19 CNS, 19.4 µM. For the same compound, the TGI with A549 NSCLC was above 100 µM; in the experiment on CAKI-1 renal, 0.418 µM; in the experiment on COLO 205 colon it was 5.29 µM; with M14 melanoma it was 40.8 µM; in the experiment on PC-3 prostate it was 45.2 µM; in the experiment on RPMI-8226 leukemia, 8.8 µM. Besides, the TGI in the experiment with RXF 393 renal was 5.76 µM; in the experiment with SK-MEL-2 melanoma it was 6.06 µM; with SK-OV-3 ovarian, 8.14 µM; with SNB-19 CNS, above 100 µM.
Consider `N=C(N)c1ccc(-c2ccc(-c3ccccc3)o2)o1`, for which the GI50 in the experiment on A549 NSCLC is 3.55 µM; in the experiment with CAKI-1 renal, 3.4 µM; in the experiment on COLO 205 colon, 1.78 µM; with M14 melanoma, 1.62 µM; in the experiment with PC-3 prostate, 2.64 µM; with RPMI-8226 leukemia, 2.89 µM. Further, the GI50 is 2.33 µM in the experiment on RXF 393 renal, 2.25 µM in the experiment with SK-MEL-2 melanoma, 4.3 µM with SK-OV-3 ovarian and 3.01 µM in the experiment with SNB-19 CNS. In addition, the TGI amounted to 11.7 µM in the experiment with A549 NSCLC; 14.2 µM with CAKI-1 renal; 3.49 µM in the experiment with COLO 205 colon; 3.4 µM with M14 melanoma; 10.1 µM in the experiment on PC-3 prostate; 8.21 µM in the experiment on RPMI-8226 leukemia. Besides, the TGI in the experiment with RXF 393 renal is 6.55 µM; in the experiment with SK-MEL-2 melanoma it was 4.2 µM; in the experiment with SK-OV-3 ovarian, 16 µM; in the experiment with SNB-19 CNS, 10.1 µM.
`COc1ccc(/C=C/c2cnnc3ccccc23)cc1OC`: the TGI with A549 NSCLC, with CAKI-1 renal, in the experiment with COLO 205 colon, in the experiment on M14 melanoma, with PC-3 prostate and with RPMI-8226 leukemia was above 10 µM in each case. Also, the TGI with RXF 393 renal, with SK-MEL-2 melanoma, with SK-OV-3 ovarian and with SNB-19 CNS was above 10 µM each time.
For the compound `C=CCOc1ccc2c(c1)CC[C@@H]1[C@@H]2CC[C@]2(C)C(=O)/C(=N/O)C[C@@H]12`, the GI50 is 4.45 µM in the experiment on A549 NSCLC; 1.9 µM with CAKI-1 renal; 3.16 µM in the experiment on COLO 205 colon; 5.95 µM with M14 melanoma; 3.6 µM in the experiment with PC-3 prostate; 2.74 µM in the experiment on RPMI-8226 leukemia. For the same compound, the GI50 is 1.98 µM with RXF 393 renal, 3.08 µM in the experiment with SK-MEL-2 melanoma, 6.97 µM in the experiment with SK-OV-3 ovarian and 11.4 µM with SNB-19 CNS. Also, the TGI in the experiment on A549 NSCLC is above 48.8 µM; in the experiment on CAKI-1 renal, above 100 µM; in the experiment with COLO 205 colon, 12.6 µM; in the experiment with M14 melanoma, 27.8 µM; with PC-3 prostate, 18.8 µM; with RPMI-8226 leukemia, 9.35 µM. Further, the TGI is 11.8 µM in the experiment with RXF 393 renal, 10.4 µM in the experiment on SK-MEL-2 melanoma, 20.3 µM in the experiment on SK-OV-3 ovarian and above 55.1 µM in the experiment on SNB-19 CNS.
Consider `O=C(Nc1ccc(-n2cc(-c3ccncc3)c(-c3ccc(Cl)c(O)c3)n2)cc1)c1ccc(Cl)c(C(F)(F)F)c1`, for which the GI50 in the experiment on A549 NSCLC was 5.41 µM; in the experiment with CAKI-1 renal, 1.7 µM; with COLO 205 colon, 1.94 µM; in the experiment on M14 melanoma, 1.16 µM; with PC-3 prostate it was 1.15 µM; with RPMI-8226 leukemia, 0.426 µM. Moreover, the GI50 is 0.213 µM in the experiment with RXF 393 renal, 1.61 µM in the experiment with SK-MEL-2 melanoma, 1.81 µM in the experiment with SK-OV-3 ovarian and 4.16 µM in the experiment with SNB-19 CNS. The TGI was above 31.4 µM with A549 NSCLC; 3.8 µM in the experiment on CAKI-1 renal; 4.64 µM in the experiment on COLO 205 colon; 3.29 µM in the experiment with M14 melanoma; 30.8 µM with PC-3 prostate; 2.68 µM with RPMI-8226 leukemia. The TGI is 0.606 µM in the experiment with RXF 393 renal, 4.69 µM with SK-MEL-2 melanoma, 8.81 µM in the experiment with SK-OV-3 ovarian and above 100 µM in the experiment on SNB-19 CNS.
For the compound `COc1ccc2nc3c(cc2c1)C(=O)CC(C(F)(F)F)C3` (stereo not given), the GI50 with A549 NSCLC is 2.48 µM; in the experiment with CAKI-1 renal, 0.639 µM; with COLO 205 colon, 0.958 µM; with M14 melanoma, 0.238 µM; in the experiment with PC-3 prostate it was 1.08 µM; in the experiment with RPMI-8226 leukemia, 13.7 µM. Further, the GI50 with RXF 393 renal is 0.562 µM; in the experiment on SK-MEL-2 melanoma, 0.847 µM; in the experiment with SK-OV-3 ovarian, 4.23 µM; in the experiment on SNB-19 CNS it was 3.61 µM. Further, the TGI is above 100 µM in the experiment on A549 NSCLC; above 100 µM with CAKI-1 renal; above 55.9 µM in the experiment with COLO 205 colon; above 100 µM in the experiment on M14 melanoma; above 100 µM in the experiment with PC-3 prostate; above 100 µM with RPMI-8226 leukemia. Further, the TGI in the experiment on RXF 393 renal is 5.1 µM; in the experiment on SK-MEL-2 melanoma, above 100 µM; in the experiment with SK-OV-3 ovarian it was above 100 µM; with SNB-19 CNS, above 100 µM.
On to `CC(=O)SC(C[N+](=O)[O-])c1ccccc1` (stereo not given), for which the TGI was 14 µM in the experiment with A549 NSCLC; 29.3 µM with CAKI-1 renal; 7.47 µM in the experiment with COLO 205 colon; 17.2 µM in the experiment with M14 melanoma; 25.7 µM with PC-3 prostate; 5.18 µM with RPMI-8226 leukemia. Further, the TGI with RXF 393 renal was determined as 4.01 µM; in the experiment with SK-MEL-2 melanoma, 50.3 µM; in the experiment on SK-OV-3 ovarian, 26.2 µM; with SNB-19 CNS, 30.9 µM.
